Laboratory results as given in the CheMixHub viscosity set.

Assay: xn = mol fraction of the nth substance listed

C1CCOC1 + C1CCCCC1
Conditions	viscosity [mPa·s]
298.15 K, 101.3 kPa, x2 = 0.1002	0.4906
298.15 K, 101.3 kPa, x2 = 0.1973	0.5151
298.15 K, 101.3 kPa, x2 = 0.2946	0.5406
298.15 K, 101.3 kPa, x2 = 0.3963	0.5689
298.15 K, 101.3 kPa, x2 = 0.5012	0.6048
298.15 K, 101.3 kPa, x2 = 0.5961	0.6424
298.15 K, 101.3 kPa, x2 = 0.7009	0.6906
298.15 K, 101.3 kPa, x2 = 0.906	0.8152
303.15 K, 101.33 kPa, x1 = 0.0954	0.751
303.15 K, 101.33 kPa, x1 = 0.1961	0.691
303.15 K, 101.33 kPa, x1 = 0.3067	0.639
303.15 K, 101.33 kPa, x1 = 0.4023	0.6
303.15 K, 101.33 kPa, x1 = 0.5059	0.562
303.15 K, 101.33 kPa, x1 = 0.6054	0.533
303.15 K, 101.33 kPa, x1 = 0.704	0.505
303.15 K, 101.33 kPa, x1 = 0.8065	0.478
303.15 K, 101.33 kPa, x1 = 0.8987	0.457
313.15 K, 101.3 kPa, x2 = 0.1002	0.4186
313.15 K, 101.3 kPa, x2 = 0.1973	0.4356
313.15 K, 101.3 kPa, x2 = 0.2946	0.4542
313.15 K, 101.3 kPa, x2 = 0.3963	0.4773
313.15 K, 101.3 kPa, x2 = 0.5012	0.5037
313.15 K, 101.3 kPa, x2 = 0.5961	0.5305
313.15 K, 101.3 kPa, x2 = 0.7009	0.5648
313.15 K, 101.3 kPa, x2 = 0.906	0.6505

CCCc1ccccc1 + C1CCOC1
303.15 K, 101.33 kPa
Conditions	viscosity [mPa·s]
x2 = 0.1005	0.732
x2 = 0.199	0.709
x2 = 0.3031	0.682
x2 = 0.4019	0.656
x2 = 0.4983	0.63
x2 = 0.6024	0.596
x2 = 0.7022	0.561
x2 = 0.8014	0.525
x2 = 0.8964	0.485

CNC(N)=O + O
viscosity [mPa·s], 101 kPa
Conditions	x1 = 9.02e-05	x1 = 0.00018	x1 = 0.00027	x1 = 0.00036	x1 = 0.0005402	x1 = 0.00108	x1 = 0.001799	x1 = 0.004484
293.15 K	1.003	1.01	1.002	1.007	1.008	1.017	1.013	1.036
298.15 K	0.8881	0.8936	0.8933	0.8922	0.8992	0.9009	0.8963	0.9188
303.15 K	–	0.7986	0.7953	0.798	0.8003	0.8032	0.8075	0.8214

COc1ccccc1 + CCCCCCCCCCCCCCCC
viscosity [mPa·s], 101.3 kPa
Conditions	x1 = 0.1745	x1 = 0.2566	x1 = 0.3849	x1 = 0.4725	x1 = 0.5679	x1 = 0.6889	x1 = 0.8311	x1 = 0.944
293.15 K	2.794	2.566	2.193	1.975	1.773	1.51	1.279	1.131
303.15 K	2.261	2.079	1.806	1.64	1.478	1.286	1.084	0.97
313.15 K	1.866	1.73	1.518	1.387	1.258	1.092	0.942	0.845
323.15 K	1.571	1.436	1.296	1.192	1.088	0.964	0.836	0.747

CCOCCn1cc[n+](C)c1.C[C@@H](O)[C@H](N)C(=O)[O-] + O
Conditions	viscosity [mPa·s]
298.15 K, 100 kPa, x2 = 0.492	991.4

CC1COC(=O)O1 (centres undefined) + C1COCCO1
303.15 K, 101.3 kPa
Conditions	viscosity [mPa·s]
x1 = 0.1007	1.1
x1 = 0.2012	1.184
x1 = 0.3015	1.273
x1 = 0.4017	1.369
x1 = 0.5017	1.472
x1 = 0.6015	1.582
x1 = 0.7018	1.706
x1 = 0.8014	1.844
x1 = 0.9008	1.992

O=C(O)CBr + [Br-].[Br-].[Br-].[Br-].[Sn+4]
viscosity [mPa·s], 101 kPa
Conditions	x2 = 0.0895	x2 = 0.2636	x2 = 0.4794	x2 = 0.7268	x2 = 0.9042
313.15 K	3.74	3.07	2.48	2.04	1.88
323.15 K	3.12	2.58	2.15	1.78	1.65

COc1ccccc1 + CS(C)=O
viscosity [mPa·s], 101.3 kPa
Conditions	x2 = 0.1034	x2 = 0.203	x2 = 0.3049	x2 = 0.4058	x2 = 0.5049	x2 = 0.6063	x2 = 0.7044	x2 = 0.8039	x2 = 0.9011
298.15 K	1.049	1.113	1.184	1.259	1.342	1.443	1.544	1.666	1.808
303.15 K	0.968	1.024	1.104	–	1.229	1.32	1.408	1.517	1.641
308.15 K	0.899	0.949	1.008	1.068	1.133	1.214	1.292	1.388	1.5

CC(C)=O + CCCCCCC
296 K, 101.3 kPa
Conditions	viscosity [mPa·s]
x1 = 0.0795	0.385
x1 = 0.1252	0.377
x1 = 0.1699	0.37
x1 = 0.2532	0.362
x1 = 0.3008	0.358
x1 = 0.3956	0.351
x1 = 0.4536	0.347
x1 = 0.5061	0.342
x1 = 0.6193	0.333
x1 = 0.6981	0.328
x1 = 0.7504	0.321
x1 = 0.8116	0.316
x1 = 0.8666	0.314
x1 = 0.9144	0.309
x1 = 0.9678	0.311

COc1ccccc1 + CCCCCCCCO
viscosity [mPa·s], 101.33 kPa
Conditions	x1 = 0.1001	x1 = 0.2	x1 = 0.3002	x1 = 0.3998	x1 = 0.5	x1 = 0.6002	x1 = 0.7001	x1 = 0.8002	x1 = 0.9
303.15 K	4.86	3.795	3.074	2.432	1.966	1.576	1.217	1.108	0.968
313.15 K	3.589	2.872	2.342	1.922	1.561	1.28	1.014	0.934	0.831
323.15 K	2.702	2.163	1.863	1.547	1.288	1.054	0.843	0.789	0.725

CC(C)=O + CC(C)CC(C)(C)C
298.15 K, 101 kPa
Conditions	viscosity [mPa·s]
x1 = 0.0643	0.456
x1 = 0.1001	0.448
x1 = 0.2004	0.428
x1 = 0.2297	0.422
x1 = 0.2934	0.417
x1 = 0.3408	0.404
x1 = 0.3994	0.395
x1 = 0.5006	0.378
x1 = 0.5566	0.367
x1 = 0.5927	0.36
x1 = 0.7032	0.341
x1 = 0.7941	0.327
x1 = 0.8898	0.314

C1CCOC1 + c1ccccc1
303.15 K, 101.33 kPa
Conditions	viscosity [mPa·s]
x1 = 0.0997	0.547
x1 = 0.1996	0.536
x1 = 0.3017	0.524
x1 = 0.3993	0.514
x1 = 0.5018	0.504
x1 = 0.6038	0.495
x1 = 0.7011	0.484
x1 = 0.8026	0.471
x1 = 0.8977	0.457
